Key:
fibrosarcoma cell line = assay: Ferroptosis screening model, MTT cell viability assay with Erastin induction; type: cell-based
Method: In this example, in order to study the inhibitor of ferroptosis, a screening model for ferroptosis was constructed in house, and the details are as follows:
The screening model for ferroptosis mainly used the MTT cell viability assay. First, the fibrosarcoma cell line was cultured in a dish, and the cells in the logarithmic growth phase were seeded in a 96-well plate in specific numbers (3000-10000 cells/well), 100 μL per well, and then cultured in an incubator at 37° C. and 5% CO2 to allow the cells to adhere. After 24 h, 100 μL of compounds at certain concentrations prepared in the indicated medium and the ferroptosis inducer Erastin (final concentration of 10 μM) were added, and wells in triplicate were set up for each compound to ensure the accuracy of the results. A negative control group, positive control group (5 μM of ferrostain-1), blank control group and solvent control group were also set. After dosing, cells were placed in the incubator and cultured for 72 h. On the day of the MTT test, MTT test solution (5 mg/mL MTT solution dissolved in physiological saline, stored at 4° C. in the dark) was pre-prepared, and 20 μL was added to each well. Cells were placed in the incubator and cultured for another 2-4 h. Then, 50 μL of 20% SDS solution (dissolved in MiliiQ water, added with 1% concentrated hydrochloric acid) was added to each well, and cells were placed in the incubator overnight. The next day, the absorbance value at 570 nm was detected with a microplate reader to calculate the inhibition rate of the drug on ferroptosis. Generally, the absorbance value of the control group should be between 0.8-1.2 as a normal value.
The curve of inhibition rate change was fitted using Graph Pad Prism 5 software to obtain EC50.

human hERG ion channel = molecular target: T1, human hERG ion channel (Homo sapiens, UniProt Q12809); assay: hERG whole-cell patch clamp in HEK293 cells; type: cell-based; settings: for IC50: hERG tail current, HEK293 cells, 0.3-30 μM, room temperature
T1 construct: expressed in transfected cells; host or cells: HEK293 cells stably expressing hERG
T1 sequence (Q12809 whole entry): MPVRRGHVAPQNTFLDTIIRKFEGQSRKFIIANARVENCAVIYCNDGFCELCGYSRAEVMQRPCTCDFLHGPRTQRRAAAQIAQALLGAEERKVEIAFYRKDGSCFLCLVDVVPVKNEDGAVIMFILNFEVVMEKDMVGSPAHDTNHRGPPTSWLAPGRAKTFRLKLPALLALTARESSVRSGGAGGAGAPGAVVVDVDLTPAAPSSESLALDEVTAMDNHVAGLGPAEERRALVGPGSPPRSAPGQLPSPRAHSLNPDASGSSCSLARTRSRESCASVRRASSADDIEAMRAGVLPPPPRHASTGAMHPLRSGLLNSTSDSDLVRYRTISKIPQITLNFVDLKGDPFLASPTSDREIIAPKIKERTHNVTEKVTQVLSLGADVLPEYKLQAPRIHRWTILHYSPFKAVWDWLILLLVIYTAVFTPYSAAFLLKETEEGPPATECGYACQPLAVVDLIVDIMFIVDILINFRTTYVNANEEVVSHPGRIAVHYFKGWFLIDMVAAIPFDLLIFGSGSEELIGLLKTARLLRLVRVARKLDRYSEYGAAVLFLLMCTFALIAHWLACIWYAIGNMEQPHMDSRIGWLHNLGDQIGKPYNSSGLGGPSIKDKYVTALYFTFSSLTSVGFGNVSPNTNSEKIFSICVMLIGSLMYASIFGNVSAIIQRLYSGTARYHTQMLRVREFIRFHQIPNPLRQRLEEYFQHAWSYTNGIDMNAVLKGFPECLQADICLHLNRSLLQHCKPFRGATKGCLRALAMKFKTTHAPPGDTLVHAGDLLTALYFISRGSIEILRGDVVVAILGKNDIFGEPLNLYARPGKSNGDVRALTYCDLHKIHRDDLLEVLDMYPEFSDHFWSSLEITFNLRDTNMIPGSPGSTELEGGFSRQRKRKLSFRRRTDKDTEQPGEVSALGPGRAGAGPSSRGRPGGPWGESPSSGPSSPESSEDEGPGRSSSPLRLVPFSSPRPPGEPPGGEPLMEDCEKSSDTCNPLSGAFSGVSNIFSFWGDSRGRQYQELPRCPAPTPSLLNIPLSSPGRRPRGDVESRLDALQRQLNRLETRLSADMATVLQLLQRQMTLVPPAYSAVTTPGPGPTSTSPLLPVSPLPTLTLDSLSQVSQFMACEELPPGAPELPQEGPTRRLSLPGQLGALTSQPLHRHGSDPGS
Method: Effect of Compounds of the Present Disclosure on Human hERG Ion Channel Expressed in HEK293 Cells at Steady State Determined by Patch Clamp
The hERG ion channel steady-state expressing HEK293 cells were transferred to a perfusion tank and perfused with extracellular fluid at room temperature. Each cell was used as a control. All test compounds were dissolved by shaking with dimethyl sulfoxide and prepared as serial concentrations of 0.3 μM, 1 μM, 3 μM, 10 μM and 30 μM. The test compounds were perfused using a perfusion system utilizing their own gravity. At least two cells were tested for each concentration. After the current was stable (or 5 min), the current magnitude changes before and after the compound was used were compared to calculate the blocking effect of the compound. Test electrodes were pulled with PC-10. Whole-cell patch clamp was used to record, with noise filtered at one-fifth of the sampling frequency. […] This procedure was repeated every 15 seconds. hERG tail currents were pure hERG currents. After the current was stabilized, the administration was performed by continuous extracellular perfusion from low concentration to high concentration. Starting from a low concentration, perfusion was continued until the drug effect was stable, and then perfusion of the next concentration was performed.
Stimulus delivery and signal acquisition were performed by the Patch Master software. The signal was amplified with a patch clamp amplifier with a filtering of 10 KHz. Fit Master, EXCEL, Graph Pad Prism and SPSS 21.0 were used for further data analysis and curve fitting. In data processing, when judging the blocking effect on hERG the peak value of the tail current and its baseline were corrected. The effect of each compound at different concentrations was expressed by the inhibition rate of the tail current. Inhibition rate %=100×(peak value of tail current before administration-peak value of tail current after administration)/peak value of tail current before administration
IC50 values were fitted by the Hill equation: […]

[1] = system: middle cerebral artery occlusion (MCAO) cerebral stroke model in rat; assay: Rat MCAO cerebral stroke model, single administration, TTC staining; type: in vivo, SD rats; settings: for Infarct area weight: tail vein injection within 10 min of reperfusion; for Infarct area weight / Infarct size: 24 h after reperfusion; for Inhibition rate of cerebral infarction / Infarct size: tail vein injection; for Inhibition rate of cerebral infarction: calculated from infarct size against model control; for Infarct size: infarct tissue weight as percentage of whole brain
Method: Through the middle cerebral artery occlusion (MCAO) cerebral stroke model (also known as cerebral ischemia model) in rat, the therapeutic effects of the compounds of the present disclosure at different doses and single administration on ischemic cerebral stroke in SD rats were studied. […] The ischemic rats were placed at room temperature to keep their body temperature at 37° C. After 90 min, the suture was pulled out for reperfusion. […] After 24 h of reperfusion, the animals were scored by NSS to evaluate neurological function, and then the animals were dissected to remove the brain for TTC staining. By determining the size of cerebral infarction and calculating the inhibition rate, the therapeutic effects of the test compounds on ischemic cerebral stroke in rats were evaluated comprehensively. […] The percentage of infarct tissue weight in the whole brain was used as the infarct size (%), and the inhibition rate (%) of each drug treatment group was calculated based on the infarct size. The inhibition rate was calculated with the following formula: [formula] 2.

[2] = Hemolysis reaction (statement only, no method)
[3] = 72 h, inhibition of ferroptosis induced by Erastin 10 μM, MTT; average of three tests
[4] = inhibition of ferroptosis induced by Erastin 10 μM, 72 h, MTT; average of three tests
[5] = summary of Table 1, compared with positive drug ferrostain-1

Structure (SMILES)	EC50 (fibrosarcoma cell line; [3]) [nM]	other results
C=C(c1ccc2c(c1)Nc1ccccc1S2)c1ccc2c(c1)SCC(=O)N2 [Compound 11]	33	–
C=C(c1ccc2c(c1)Nc1ccccc1S2)c1cnc2sccc2c1 [Compound 35]	74	–
C=C(c1ccc2c(c1)Nc1ccccc1S2)c1ccc2c(C=O)c[nH]c2c1 [Compound 10]	15	–
C=C(c1ccc(S(=O)(=O)NC2CCN(C)CC2)cc1)c1ccc2c(c1)Nc1ccccc1S2 [Comparative Compound 2, reference compound]	–	IC50 (human hERG ion channel): 710 nM
C=C(c1ccc2c(c1)Nc1ccccc1S2)c1cn2ccnc2c(N2CCOCC2)n1 [Compound 7]	24	–
C=C(c1ccc2c(c1)Nc1ccccc1S2)c1cnc2c(cnn2C2CCOC2)c1 (stereo not drawn) [Compound 19]	–	EC50 (fibrosarcoma cell line; [4]): 13 nM
C=C(c1ccc2c(c1)Nc1ccccc1S2)c1ccc2ncccc2c1 [Compound 14]	6	Infarct area weight ([1]; 2.5 mg/kg): 0.15 ± 0.07 g; Inhibition rate of cerebral infarction ([1]; 2.5 mg/kg): 14.0%; Infarct size ([1]; 2.5 mg/kg): 12.11 ± 5.69%; Infarct area weight ([1]; 5 mg/kg): 0.12 ± 0.05 g; Inhibition rate of cerebral infarction ([1]; 5 mg/kg): 29.3%; Infarct size ([1]; 5 mg/kg): 9.95 ± 4.69%; range of necrosis of brain tissue lesions (in words) ([1]; high and low dose administration groups): reduce the range of necrosis of brain tissue lesions; inhibitory effects on ferroptosis (in words) (fibrosarcoma cell line; [5]): excellent inhibitory effects on ferroptosis, significantly better than the positive drug ferrostain-1; hemolysis reaction (in words) [2]: no hemolysis reaction; effect on the human hERG ion channel (in words) (human hERG ion channel; HEK293 cells in a steady state): no significant effect; IC50 (human hERG ion channel): > 30000 nM; improvement of cardiac safety compared with compound 59 of CN111574474A (human hERG ion channel; ratio of hERG IC50 values): about 50 times
CC(c1ccc(N2CCN(C)CC2)cc1)c1ccc2c(c1)Nc1ccccc1S2 (stereo not drawn) [Comparative Compound 1, reference compound]	–	Infarct area weight ([1]; 2.5 mg/kg): 0.14 ± 0.07 g; Inhibition rate of cerebral infarction ([1]; 2.5 mg/kg): 19.0%; Infarct area weight ([1]; 5 mg/kg): 0.11 ± 0.05 g; Inhibition rate of cerebral infarction ([1]; 5 mg/kg): 33.6%
C=C(c1ccc2c(c1)Nc1ccccc1S2)c1cnc2c(cnn2C2CCNCC2)c1 [Compound 36]	16	–
CCOC(=O)c1ccc(NC2CCCCC2)c(N)c1 [Ferrostain-1, Ferrostatin-1, reference compound]	–	EC50 (fibrosarcoma cell line; 72 h): 60 nM
C=C(c1ccc2c(c1)Nc1ccccc1S2)c1ccc2cc(C(=O)NCCN3CCOCC3)[nH]c2c1 [Compound 9]	12	–
C=C(c1cnc2c(c1)CCN2)c1ccc2c(c1)Nc1ccccc1S2 [Compound 17]	89	–
C=C(c1ccc2c(c1)Nc1ccccc1S2)c1ccc2c(c1)OC(F)(F)O2 [Compound 15]	10	–
C=C(c1ccc2c(c1)Nc1ccccc1S2)c1cnc2c(cnn2C2CCOC2)c1 (stereo not drawn) [Compound 32]	–	EC50 (fibrosarcoma cell line; [4]): 50 nM
C=C(c1ccc2c(c1)Nc1ccccc1S2)c1cnc2c(cnn2C2CCN(C)CC2)c1 [Compound 20]	0.2	inhibitory effects on ferroptosis (in words) (fibrosarcoma cell line; [5]): excellent inhibitory effects on ferroptosis, significantly better than the positive drug ferrostain-1
C=C(c1ccc2c(c1)Nc1ccccc1S2)c1cnc2c(cnn2C2CN(C(=O)OC(C)(C)C)C2)c1 [Compound 8]	–	EC50 (fibrosarcoma cell line; [4]): 55 nM
CCCCC1OC(=O)c2ccccc21 (stereo not drawn) [Positive drug, butylphthalide, reference compound]	–	Infarct area weight ([1]; 5 mg/kg): 0.18 ± 0.09 g; Inhibition rate of cerebral infarction ([1]; 5 mg/kg): 1.1%; Infarct size ([1]; 5 mg/kg): 13.93 ± 6.97%

Now from value to compound, other results behind:

EC50 (fibrosarcoma cell line; [3]) [nM]	Structure (SMILES)	other results
29	C=C(c1ccc2c(c1)Nc1ccccc1S2)c1cnc2c(cnn2C2CCN(C(=O)OC(C)(C)C)CC2)c1 [Compound 29]	–
56	C=C(c1ccc2c(c1)Nc1ccccc1S2)c1cn2cc(C(=O)NCC3CCOCC3)nc2cn1 [Compound 24]	–
67	C=C(c1ccc2c(c1)Nc1ccccc1S2)c1cn2cc(C(=O)NC3CCOCC3)nc2cn1 [Compound 23]	–
42	C=C(c1ccc2c(c1)Nc1ccccc1S2)c1cnc2c(ccn2C)c1 [Compound 34]	–
11	C=C(c1ccc2c(c1)Nc1ccccc1S2)c1cnc2[nH]ncc2c1 [Compound 31]	–
14	C=C(c1ccc2c(c1)Nc1ccccc1S2)c1cnc2nc(C(=O)NCCN(C)C)cn2c1 [Compound 22]	–
15	C=C(c1ccc2c(c1)Nc1ccccc1S2)c1ccc2c(C(=O)NCCN3CCOCC3)c[nH]c2c1 [Compound 6]	–
67	C=C(c1ccc2c(c1)Nc1ccccc1S2)c1cnc2c(cnn2CC)c1 [Compound 33]	–
37	C=C(c1ccc2c(c1)Nc1ccccc1S2)c1ccc2c(c1)OCCO2 [Compound 13]	–
10	C=C(c1ccc2c(c1)CCN2C(C)=O)c1ccc2c(c1)Nc1ccccc1S2 [Compound 16]	–
76	C=C(c1ccc2c(c1)Nc1ccccc1S2)c1cn2cc(C(=O)N[C@H](C)c3ccccc3)nc2cn1 [Compound 26]	–
38	C=C(c1ccc2c(c1)Nc1ccccc1S2)c1cnc2c(cnn2CC2CCOCC2)c1 [Compound 2]	–
76	C=C(c1ccc2c(c1)Nc1ccccc1S2)c1cnc2c(cnn2CC2CCN(C(=O)OC(C)(C)C)CC2)c1 [Compound 4]	–
92	C=C(c1ccc2c(c1)Nc1ccccc1S2)c1cnc2c(cnn2C2CN(C(=O)OC(C)(C)C)C2)c1 [Compound 30]	–
73	C=C(c1ccc2c(c1)Nc1ccccc1S2)c1cnc2c(cnn2CCOC)c1 [Compound 27]	–
55	C=C(c1ccc2c(c1)Nc1ccccc1S2)c1cn2cc(C(=O)N[C@H](C)c3cccc4ccccc34)nc2cn1 [Compound 25]	–

Reference: patent US12448376B2, “Phenothiazine ferroptosis inhibitor, preparation method therefor and application thereof” (CHENGDU HENGHAO INNOVATIVE SCIENCE AND TECHNOLOGY CO., LTD., priority 2019, dated 2025)
